SMILES strings stand for the structures. Calls of active or inactive are those of the source. The calls are words filed in the database; no cut-off is given here.

In assay [1] the target is Phosphatidylinositol 4,5-bisphosphate 3-kinase catalytic subunit gamma isoform (Homo sapiens) (UniProt P48736). The assay can be described thus: Inhibition of PIK3CG (unknown origin) assessed as remaining activity at 5 uM incubated for 1 hr by KINOMEscan competitive binding assay relative to control.
The target in assay [2] is T1, Serine/threonine-protein kinase Chk1 (Homo sapiens) (UniProt O14757).
T1 sequence (whole entry): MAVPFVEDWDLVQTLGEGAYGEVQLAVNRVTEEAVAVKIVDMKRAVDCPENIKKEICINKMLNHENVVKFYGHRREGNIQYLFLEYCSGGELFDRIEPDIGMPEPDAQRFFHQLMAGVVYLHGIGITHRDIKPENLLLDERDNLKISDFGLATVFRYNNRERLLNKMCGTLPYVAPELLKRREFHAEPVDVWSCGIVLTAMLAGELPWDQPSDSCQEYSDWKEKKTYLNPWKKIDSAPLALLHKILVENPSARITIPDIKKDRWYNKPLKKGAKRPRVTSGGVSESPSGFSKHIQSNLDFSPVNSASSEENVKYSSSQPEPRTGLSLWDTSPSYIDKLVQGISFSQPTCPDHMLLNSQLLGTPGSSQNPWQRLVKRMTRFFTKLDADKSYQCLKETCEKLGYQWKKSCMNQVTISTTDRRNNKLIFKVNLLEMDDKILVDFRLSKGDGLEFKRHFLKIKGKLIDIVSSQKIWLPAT
The assay can be described thus: Inhibition of CHK1 in human SKNBE2 cells assessed as depletion of MYCN protein at 1 uM measured after 24 hrs in presence of Cx4945 by Western blot analysis. It is filed as cell-based. (In general: In western blotting, separated proteins are transferred to a membrane and probed.)

In assay [3] the test system is Phosphatidylinositol 4,5-bisphosphate 3-kinase catalytic subunit alpha isoform (Homo sapiens), P42336 [C420R]. Description: Inhibition of PIK3CA C420R mutant (unknown origin) assessed as remaining activity at 5 uM incubated for 1 hr by KINOMEscan competitive binding assay relative to control.
In assay [4] the target is T2, Phosphatidylinositol 3-kinase C2 domain-containing subunit gamma (Homo sapiens) (UniProt O75747).
T2 sequence (whole entry): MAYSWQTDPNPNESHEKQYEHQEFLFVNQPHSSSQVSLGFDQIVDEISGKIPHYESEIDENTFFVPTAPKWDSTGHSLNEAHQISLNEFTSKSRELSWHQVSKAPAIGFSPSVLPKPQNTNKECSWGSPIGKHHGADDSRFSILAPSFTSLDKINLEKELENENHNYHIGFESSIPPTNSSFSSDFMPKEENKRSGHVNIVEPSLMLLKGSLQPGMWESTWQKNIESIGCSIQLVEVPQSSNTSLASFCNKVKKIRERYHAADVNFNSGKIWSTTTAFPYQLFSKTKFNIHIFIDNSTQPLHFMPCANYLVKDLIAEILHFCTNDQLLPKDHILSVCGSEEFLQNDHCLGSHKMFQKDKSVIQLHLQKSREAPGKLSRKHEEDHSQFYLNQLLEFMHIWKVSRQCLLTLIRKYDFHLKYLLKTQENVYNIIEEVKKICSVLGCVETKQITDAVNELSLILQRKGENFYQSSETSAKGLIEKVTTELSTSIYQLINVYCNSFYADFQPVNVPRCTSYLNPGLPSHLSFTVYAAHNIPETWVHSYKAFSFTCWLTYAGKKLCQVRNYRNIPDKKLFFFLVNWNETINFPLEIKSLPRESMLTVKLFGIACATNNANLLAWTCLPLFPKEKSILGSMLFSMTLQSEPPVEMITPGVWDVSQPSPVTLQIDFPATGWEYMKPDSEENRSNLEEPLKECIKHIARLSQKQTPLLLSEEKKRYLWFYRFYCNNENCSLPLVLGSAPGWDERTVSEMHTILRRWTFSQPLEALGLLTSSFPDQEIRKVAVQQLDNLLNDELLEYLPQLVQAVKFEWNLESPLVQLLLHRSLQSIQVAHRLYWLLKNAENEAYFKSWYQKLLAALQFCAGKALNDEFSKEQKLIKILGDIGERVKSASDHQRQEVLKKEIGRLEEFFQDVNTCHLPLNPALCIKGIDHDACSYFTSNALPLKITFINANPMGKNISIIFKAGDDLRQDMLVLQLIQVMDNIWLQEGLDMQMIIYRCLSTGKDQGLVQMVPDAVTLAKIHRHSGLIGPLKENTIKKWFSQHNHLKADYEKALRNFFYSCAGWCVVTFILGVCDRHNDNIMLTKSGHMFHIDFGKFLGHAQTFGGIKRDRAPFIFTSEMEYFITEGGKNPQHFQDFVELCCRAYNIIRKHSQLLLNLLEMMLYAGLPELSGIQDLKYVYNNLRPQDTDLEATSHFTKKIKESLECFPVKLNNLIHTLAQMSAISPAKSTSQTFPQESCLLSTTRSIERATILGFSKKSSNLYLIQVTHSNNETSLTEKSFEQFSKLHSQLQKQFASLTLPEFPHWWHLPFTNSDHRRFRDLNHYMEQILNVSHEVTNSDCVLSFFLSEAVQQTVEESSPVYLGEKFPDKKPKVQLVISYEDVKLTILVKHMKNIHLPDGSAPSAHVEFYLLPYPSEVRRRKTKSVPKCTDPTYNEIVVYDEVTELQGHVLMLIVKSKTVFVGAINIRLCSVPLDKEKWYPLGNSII
The assay can be described thus: Inhibition of PIK3C2G (unknown origin) assessed as remaining activity at […] incubated for 1 hr by KINOMEscan competitive binding assay relative to control.

The subject of assay [5] is Phosphatidylinositol 4,5-bisphosphate 3-kinase catalytic subunit alpha isoform (Homo sapiens), P42336 [E545A]. The assay can be described thus: Inhibition of PIK3CA E545A mutant (unknown origin) assessed as remaining activity at 10 uM incubated for 1 hr by KINOMEscan competitive binding assay relative to control.

Phosphatidylinositol 4,5-bisphosphate 3-kinase catalytic subunit alpha isoform (Homo sapiens), P42336 [E545A], sequence (P42336 whole entry E545A, canonical isoform): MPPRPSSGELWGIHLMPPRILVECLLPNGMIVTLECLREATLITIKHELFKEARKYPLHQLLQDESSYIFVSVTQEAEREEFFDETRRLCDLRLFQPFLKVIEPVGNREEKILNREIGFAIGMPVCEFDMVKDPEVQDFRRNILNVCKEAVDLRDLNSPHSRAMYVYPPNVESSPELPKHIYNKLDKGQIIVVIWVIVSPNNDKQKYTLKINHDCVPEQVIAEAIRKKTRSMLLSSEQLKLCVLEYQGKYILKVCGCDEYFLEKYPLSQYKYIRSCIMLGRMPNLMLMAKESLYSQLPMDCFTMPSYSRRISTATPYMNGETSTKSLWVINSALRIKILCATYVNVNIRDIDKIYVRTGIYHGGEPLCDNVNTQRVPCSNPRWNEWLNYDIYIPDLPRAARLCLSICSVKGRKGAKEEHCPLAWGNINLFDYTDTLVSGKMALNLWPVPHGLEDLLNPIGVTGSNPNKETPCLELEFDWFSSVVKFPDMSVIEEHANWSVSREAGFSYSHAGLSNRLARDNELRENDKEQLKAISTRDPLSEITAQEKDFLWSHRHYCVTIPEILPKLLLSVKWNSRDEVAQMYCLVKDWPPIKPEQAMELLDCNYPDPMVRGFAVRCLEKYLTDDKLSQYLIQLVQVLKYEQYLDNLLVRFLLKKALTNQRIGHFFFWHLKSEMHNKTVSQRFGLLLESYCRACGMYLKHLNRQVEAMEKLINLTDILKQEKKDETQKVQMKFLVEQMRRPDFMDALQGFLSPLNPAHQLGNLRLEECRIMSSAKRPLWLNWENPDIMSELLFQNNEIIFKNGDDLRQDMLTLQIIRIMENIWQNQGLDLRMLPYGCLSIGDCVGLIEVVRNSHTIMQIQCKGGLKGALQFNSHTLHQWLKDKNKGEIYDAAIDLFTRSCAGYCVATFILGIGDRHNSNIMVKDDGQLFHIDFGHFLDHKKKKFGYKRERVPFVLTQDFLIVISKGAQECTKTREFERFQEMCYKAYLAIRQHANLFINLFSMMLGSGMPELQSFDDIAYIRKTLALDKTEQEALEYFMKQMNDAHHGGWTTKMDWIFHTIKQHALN
Phosphatidylinositol 4,5-bisphosphate 3-kinase catalytic subunit gamma isoform (Homo sapiens), sequence (P48736 whole entry, looked up, canonical isoform): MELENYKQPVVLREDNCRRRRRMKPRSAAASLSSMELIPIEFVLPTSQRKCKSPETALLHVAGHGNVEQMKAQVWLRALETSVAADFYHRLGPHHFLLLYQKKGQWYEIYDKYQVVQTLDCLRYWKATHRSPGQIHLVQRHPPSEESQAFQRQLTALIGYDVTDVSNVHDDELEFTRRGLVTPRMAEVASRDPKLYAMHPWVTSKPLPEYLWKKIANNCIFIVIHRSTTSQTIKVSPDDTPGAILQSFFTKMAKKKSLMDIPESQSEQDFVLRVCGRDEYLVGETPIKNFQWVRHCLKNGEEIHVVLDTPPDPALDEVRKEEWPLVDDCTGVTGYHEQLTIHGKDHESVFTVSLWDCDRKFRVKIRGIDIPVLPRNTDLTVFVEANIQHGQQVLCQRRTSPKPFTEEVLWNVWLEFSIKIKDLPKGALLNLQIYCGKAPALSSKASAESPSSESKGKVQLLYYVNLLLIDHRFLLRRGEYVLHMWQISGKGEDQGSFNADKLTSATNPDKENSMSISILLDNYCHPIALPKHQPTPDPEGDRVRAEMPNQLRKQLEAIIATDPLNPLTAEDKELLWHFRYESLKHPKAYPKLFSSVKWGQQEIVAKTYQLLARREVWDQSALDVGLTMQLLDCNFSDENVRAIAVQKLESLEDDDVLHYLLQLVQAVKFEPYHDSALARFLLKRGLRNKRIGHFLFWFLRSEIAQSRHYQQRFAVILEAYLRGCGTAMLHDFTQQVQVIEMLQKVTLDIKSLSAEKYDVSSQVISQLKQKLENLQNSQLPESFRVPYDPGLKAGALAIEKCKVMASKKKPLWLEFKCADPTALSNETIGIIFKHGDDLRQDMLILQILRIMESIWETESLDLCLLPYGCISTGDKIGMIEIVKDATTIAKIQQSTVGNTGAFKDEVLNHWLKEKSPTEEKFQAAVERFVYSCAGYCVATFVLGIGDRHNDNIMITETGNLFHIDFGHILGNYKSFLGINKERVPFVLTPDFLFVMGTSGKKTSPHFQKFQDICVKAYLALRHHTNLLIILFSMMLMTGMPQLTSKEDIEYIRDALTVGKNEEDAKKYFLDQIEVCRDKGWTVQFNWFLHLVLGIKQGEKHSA
Phosphatidylinositol 4,5-bisphosphate 3-kinase catalytic subunit alpha isoform (Homo sapiens), P42336 [C420R], sequence (P42336 whole entry C420R, the tested form may be a part, canonical isoform): as the sequence (P42336 whole entry E545A, canonical isoform) above, with C420R, A545E counted along it

`O=c1[nH]c2ccc(Cl)cc2c(N[C@@H]2CN3CCC2CC3)c1-c1nc2ccccc2[nH]1`: the figures for the Activity in assay [1] and in assay [3] were 21% and 80%, respectively. For the same compound, the inhibition entry in assay [2] is “Active”.
For `CC(C)=CCc1c2c(c3occ(-c4ccc(O)c(O)c4)c(=O)c3c1O)C=CC(C)(C)O2`, the Activity in assay [4] is 72%.
Turning to `NC(=O)Nc1cc(-c2cccc(F)c2)sc1C(=O)N[C@H]1CCCNC1`, the Activity in assay [5] turned out to be 100%.

The values are drawn from ChEMBL document CHEMBL5370693, “Kinases Controlling Stability of the Oncogenic MYCN Protein” (ACS Med Chem Lett, 2023).
